Source: patent US20120225093A1, “Abrogating HIV-1 Infection via Drug-Induced Reactivation of Apoptosis” (UNIVERSITY OF MEDICINE AND DENTISTRY OF NEW JERSEY, priority 2010, published 2012)

Key:
Type in all cases: cell-based
[1] = target: T1, deoxyhypusine hydroxylase (Homo sapiens, UniProt Q9BU89); test: Deoxyhypusine hydroxylase activity in H9-HIV cells (peptide-bound hypusine / deoxyhypusine)
T1 construct: endogenous in cells; host or cells: H9-HIV cells (H9 infected with HIV-1 HTLV-IIIB)
T1 sequence (Q9BU89 1-302): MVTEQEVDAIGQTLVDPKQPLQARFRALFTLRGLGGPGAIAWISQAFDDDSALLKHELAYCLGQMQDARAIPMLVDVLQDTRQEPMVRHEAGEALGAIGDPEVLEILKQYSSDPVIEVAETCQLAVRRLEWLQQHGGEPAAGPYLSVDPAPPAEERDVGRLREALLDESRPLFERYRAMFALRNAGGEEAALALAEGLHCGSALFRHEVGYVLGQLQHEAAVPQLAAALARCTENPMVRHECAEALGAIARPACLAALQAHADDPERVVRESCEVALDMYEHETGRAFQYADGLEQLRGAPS
From the text: FIGS. 11A-D are a set of diagrams showing drug-activated apoptosis and iron chelation. A. Covalent structures of the medicinal chelators DFOX and DEF, and of the antifungal agent CPX and its chelation homolog Agent P2. DFOX, CPX, and Agent P2 interact with iron via a hydroxamate moiety, similar to the chelating domain of DEF. Arrows indicate the uniform bidentate mode of metal binding. DFOX contains three of these moieties and is a hexadentate chelator. B. Effect of drugs and Agent P2 on the expression of iron-dependant (IRE; hatched bars) and retrovirally-encoded (HIV; filled bars) gene expression in transfected 293T cells. Results are expressed relative to untreated controls. C. […] Triangles, peptide-bound hypusine; squares, peptide-bound deoxyhypusine. D. Induction of apoptosis by CPX and by DFOX. H9-HIV cells were treated for 24 hr and then assayed by flow cytometry using TUNEL. Results are expressed as percentage of cells that are TUNEL-positive (±SEM).

eIF5A:DHS complex = target: T2, eIF5A:DHS complex (Homo sapiens, UniProt P49366); test: Co-immunoprecipitation of eIF5A with DHS from 293T cell extracts; conditions: 293T transfected with FLAG-DHS
T2 construct: expressed in transfected cells; host or cells: 293T cells (FLAG-DHS transfected, eIF5A endogenous)
T2 sequence (P49366 1-369): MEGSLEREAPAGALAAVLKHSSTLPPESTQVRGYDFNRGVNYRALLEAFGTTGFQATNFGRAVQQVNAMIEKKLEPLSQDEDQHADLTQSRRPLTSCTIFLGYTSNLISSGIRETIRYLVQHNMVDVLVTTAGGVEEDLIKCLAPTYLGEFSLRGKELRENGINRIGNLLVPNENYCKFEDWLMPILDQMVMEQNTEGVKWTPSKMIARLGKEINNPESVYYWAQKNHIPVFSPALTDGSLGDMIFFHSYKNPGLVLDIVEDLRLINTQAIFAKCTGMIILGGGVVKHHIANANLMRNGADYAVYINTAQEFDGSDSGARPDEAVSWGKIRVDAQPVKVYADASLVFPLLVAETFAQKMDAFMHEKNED
Protocol: Immunoprecipitation and immunoblotting experiments were carried out as described previously in Hoque et al. Mol Cell Biol 2003, 23:1688-1702.
eIF5A forms tight complexes with its modifying enzymes. Unmodified eIF5A (lysine-50) immunoprecipitates with DHS and deoxyhypusyl-eIF5A interacts with DOHH in vitro. It was discovered that the deoxyhypusyl-eIF5A:DOHH complex formed in vivo can be detected by immunoprecipitation from cell extracts. Taking advantage of this finding, the effects of the drugs on the enzyme-substrate interaction were tested. FLAG-eIF5A was expressed in 293T cells and complexes that immunoprecipitated with anti-FLAG antibody were immunoblotted and probed with antibodies against DOHH. […] As a further control, the DHS inhibitor GC7 was included in this assay. […] As expected, none of the compounds affected the immunoprecipitation of FLAG-eIF5A (FIG. 2D, middle panel) or the expression of endogenous eIF5A (FIG. 2D, bottom panel). Reciprocally, the interaction between endogenous eIF5A and tagged DOHH was inhibited by CPX and DEF (FIG. 2E, right). Similarly, the interaction of endogenous eIF5A with tagged DHS was inhibited by GC7 (FIG. 2E, left) but resistant to CPX and DEF. It is concluded that CPX and DEF, but not P2 or DFOX, target DOHH and inhibit its interaction with its substrate, deoxyhypusylelF5A.

H9-HIV cells = test: Apoptosis in H9-HIV cells: annexin V binding, cell diameter, cell survival; conditions: CPX 30 μM, DEF 200 μM; for increase in annexin-V binding, 7-AAD-negative cell population: by 24 hr
Protocol: Uninfected and uniformly HIV-1 (HTLV-IIIB) infected H9 cells, obtained from the NIH AIDS Research and References Reagent Program, were cultured at 37° C. in a humidified atmosphere (5% CO2, 95% humidity) using RPMI 1640 medium supplemented with 2 mM L-glutamine, […], […] and 20% fetal calf serum.
Viability, diameter, and cell number of PBMCs and H9 cells were measured by computerized image analysis of trypan blue exclusion (VI-CELL™; Beckman Coulter; Fullerton, Calif.). PBMCs were counted with an automated, multi-parameter hematology analyzer (CELL-DYN™; Abbott Laboratories, Abbott Park, Ill.).
The potential across the mitochondrial membrane of live cells was determined flow-cytometrically with the lipophilic cationic fluorochrome JC-1 (5,5′,6,6′-tetrachloro-1,1′,3,3′-tetraethylbenzimidazolcarbocyanine iodide) immediately after sample harvest (BD™ Mitoscreen Kit, BD Biosciences; San Diego, Calif.). DNA fragmentation was quantified flow-cytometrically, using a TUNEL (terminal deoxynucleotide transferase dUTP nick end-labeling) assay (APO-BRDU™; Phoenix Flow Systems; San Diego, Calif.) and a dual-color assay for annexin V binding and 7-AAD exclusion (Annexin V-PE 7-AAD Apoptosis Detection Kit I™; BD Biosciences Pharmingen, San Jose, Calif.). The apoptotic volume decrease of cells was assessed by the reduction of their diameter (VI-CELL™; Beckman Coulter; Fullerton, Calif.).
First, whether both drugs elicit apoptosis in H9-HIV cells was determined. The cells were exposed to CPX or DEF, and annexin-V binding, cell diameter and cell survival were assayed in a time-dependent manner. By 24 hr, drug treatment elicited a ˜5-fold increase in the percentage of the 7-AAD-negative cell population capable of binding annexin-V to exposed membrane phospholipid phosphatidylserine, with little further increase at 48 hr (FIG. 8A). Both drugs elicited a decrease in mean cell diameter of ˜15% within 24 hr and ˜30% within 48 hr, indicating volume constriction characteristic of apoptosis but not necrosis (FIG. 8B). Concomitantly, cell survival decreased ˜2 fold at 24 hr and ˜5 fold at 48 hr (FIG. 8C).

SMILES | inhibition of deoxyhypusine hydroxylase activity / eIF5A hydroxylation [1] | interaction of endogenous eIF5A with tagged DHS (eIF5A:DHS complex) | decrease in cell survival (H9-HIV cells; at 24 hr) [fold] | decrease in cell survival (H9-HIV cells; at 48 hr) [fold] | increase in annexin-V binding, 7-AAD-negative cell population (H9-HIV cells) [fold] | decrease in mean cell diameter (H9-HIV cells; within 24 hr) [%] | decrease in mean cell diameter (H9-HIV cells; within 48 hr) [%]
Cc1ccn(O)c(=O)c1 [Agent P2, 1-hydroxy-4-methylpyridin-2[1H]-one] | failed to inhibit eIF5A hydroxylation in vivo or in vitro | – | – | – | – | – | –
Cc1cc(C2CCCCC2)n(O)c(=O)c1 [CPX, 6-cyclohexyl-1-hydroxy-4-methylpyridin-2[1H]-one] | Dose-dependent inhibition of deoxyhypusine hydroxylase activity | resistant | ~2 | ~5 | ~5 | ~15 | ~30
Cc1c(O)c(=O)ccn1C [DEF, 3-hydroxy-1,2-dimethylpyridin-4(1H)-one] | – | resistant | ~2 | ~5 | ~5 | ~15 | ~30
